# Test results as given in patent publication US20120016009A1, “Optimized Methods For Delivery Of DSRNA Targeting The PCSK9 Gene” (priority 2008, published 2012).
# In the oligonucleotide strings, read from the 5' end, every base follows the letter of its sugar. An asterisk marks phosphorothioate; unmarked linkages are phosphodiester. Other units and linkages are bracketed, terminal groups are in braces. A string of capitals states the bases alone. d = 2'-deoxy (DNA); m = 2'-O-methyl; r = 2'-OH (RNA)
# Tested on: PCSK9 mRNA
# Assay: PCSK9 siRNA screening in HepG2 cells (lipofectamine 2000 transfection, PCSK9 mRNA by Quantigene, normalized to GAP-DH)
# Assay type: cell-based, human
# Details: for Mean percent remaining mRNA transcript at siRNA concentration/in cell type 30 nM/HepG2: 30 nM siRNA; for Mean percent remaining mRNA transcript at siRNA concentration/in cell type 3 nM/HepG2: 3 nM siRNA; for Mean percent remaining mRNA transcript at siRNA concentration/in cell type 100 nM/HepG2: 100 nM siRNA
# Method in brief: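 PCSK9 silencing was assessed in HepG2 cells by lipofectamine 2000 siRNA transfection in 96-well plates. Twenty-four hours later, lysates were analyzed with the Quantigene Explore Kit, with PCSK9 signal normalized to GAP-DH. Eight datapoints were collected per siRNA, and remaining transcript was expressed as a percentage of cells treated with an unrelated control siRNA duplex.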
Substance,Mean percent remaining mRNA transcript at siRNA concentration/in cell type 30 nM/HepG2 [%],Mean percent remaining mRNA transcript at siRNA concentration/in cell type 3 nM/HepG2 [%],Mean percent remaining mRNA transcript at siRNA concentration/in cell type 100 nM/HepG2 [%],IC50 [nM]
AD-9640: PCSK9 siRNA (sense rGmUrAmCmCrGrGrGmCrGrGrAmUrGrArAmUrAmCdT*dT; antisense rGmUrArUrUmCrArUrCrCrGrCrCrCrGrGmUrArCdT*dT),89,,,
AD-9721: PCSK9 siRNA (sense mCmUrGrArGrGrAmCmCrArGmCrGrGrGmUrAmCmUdT*dT; antisense rArGmUrArCrCrCrGrCrUrGrGrUrCrCrUmCrArGdT*dT),87,70,,
AD-9681: PCSK9 siRNA (sense rGmUmCrArGrGrArGmCmCrGrGrGrAmCrGmUmCrAdT*dT; antisense rUrGrArCrGrUrCrCrCrGrGrCrUrCrCrUrGrArCdT*dT),55,,,
AD-9609: PCSK9 siRNA (sense rCrArCrGrGrUrArCrCrGrGrGrCrGrGrArUrGrAdT*dT; antisense rUrCrArUrCrCrGrCrCrCrGrGrUrArCrCrGrUrGdT*dT),71,,66,
AD-9602: PCSK9 siRNA (sense rCrArGrCrGrGrCrCrGrGrGrArUrGrCrCrGrGrCdT*dT; antisense rGrCrCrGrGrCrArUrCrCrCrGrGrCrCrGrCrUrGdT*dT),126,,,
AD-9686: PCSK9 siRNA (sense rGrArGmUmUmUrAmUmUmCrGrGrArArArArGmCmCdT*dT; antisense rGrGrCrUrUrUrUrCrCrGrArAmUrArArArCrUrCdT*dT),111,,,
AD-9653: PCSK9 siRNA (sense rGmCmCrArAmCmCmCrGmCmUmCmCrAmCmUrAmCmCdT*dT; antisense rGrGmUrArGrUrGrGrArGrCrGrGrGrUrUrGrGrCdT*dT),86,,,
AD-9634: PCSK9 siRNA (sense rCrUrCrUrGrUrUrGrCrCrUrUrUrUrUrArCrArGdT*dT; antisense rCrUrGrUrArArArArArGrGrCrArArCrArGrArGdT*dT),29,30,,
AD-9738: PCSK9 siRNA (sense rAmCmCrAmCmCrGrGrGrArArAmUmCrGrArGrGrGdT*dT; antisense rCrCrCrUrCrGrArUrUrUrCrCrCrGrGrUrGrGrUdT*dT),83,,,
AD-9521: PCSK9 siRNA (sense rCrUrCrCrUrArGrArCrArCrCrArGrCrArUrArCdT*dT; antisense rGrUrArUrGrCrUrGrGrUrGrUrCrUrArGrGrArGdT*dT),50,,,
AD-9754: PCSK9 siRNA (sense mUmUmCmUmCmUrGmCmCrArArArGrAmUrGmUmCrAdT*dT; antisense rUrGrAmCrArUrCrUrUrUrGrGmCrArGrArGrArAdT*dT),89,,,
AD-9616: PCSK9 siRNA (sense rArGrCrArCrCrUrGrCrUrUrUrGrUrGrUrCrArCdT*dT; antisense rGrUrGrArCrArCrArArArGrCrArGrGrUrGrCrUdT*dT),84,,74,
AD-9574: PCSK9 siRNA (sense rCrUrGrCrCrArArGrGrGrArArGrGrGrCrArCrGdT*dT; antisense rCrGrUrGrCrCrCrUrUrCrCrCrUrUrGrGrCrArGdT*dT),74,,,
AD-9742: PCSK9 siRNA (sense rArGmCrAmCmCmUrGmCmUmUmUrGmUrGmUmCrAmCdT*dT; antisense rGrUrGrAmCrAmCrArArArGmCrArGrGrUrGrCrUdT*dT),127,,,
AD-9693: PCSK9 siRNA (sense mCrGmCmUrGmUrGmUrGrGrAmCmCmUmCmUmUmUrGdT*dT; antisense mCrArArArGrArGrGrUrCmCrAmCrAmCrArGrCrGdT*dT),50,,,
AD-9550: PCSK9 siRNA (sense rGrArGrGrGrUrGrUrCrUrArCrGrCrCrArUrUrGdT*dT; antisense rCrArArUrGrGrCrGrUrArGrArCrArCrCrCrUrCdT*dT),36,,,
AD-9570: PCSK9 siRNA (sense rCrUrGrCrCrGrGrGrCrCrCrArCrArArCrGrCrUdT*dT; antisense rArGrCrGrUrUrGrUrGrGrGrCrCrCrGrGrCrArGdT*dT),42,,35,
AD-9719: PCSK9 siRNA (sense mCrArGrGrGmUmCrAmUrGrGmUmCrAmCmCrGrAmCdT*dT; antisense rGrUrCrGrGrUrGrArCmCrArUrGrArCrCrCrUrGdT*dT),115,,,

Substance,Mean percent remaining mRNA transcript at siRNA concentration/in cell type 30 nM/HepG2 [%],Mean percent remaining mRNA transcript at siRNA concentration/in cell type 3 nM/HepG2 [%],Mean percent remaining mRNA transcript at siRNA concentration/in cell type 100 nM/HepG2 [%],IC50 [nM]
AD-9531: PCSK9 siRNA (sense rArArArUrCrGrArGrGrGrCrArGrGrGrUrCrArUdT*dT; antisense rArUrGrArCrCrCrUrGrCrCrCrUrCrGrArUrUrUdT*dT),31,32,,0.53
AD-9522: PCSK9 siRNA (sense rArArGrGrArGrCrArUrGrGrArArUrCrCrCrGrGdT*dT; antisense rCrCrGrGrGrArUrUrCrCrArUrGrCrUrCrCrUrUdT*dT),59,,,
AD-9546: PCSK9 siRNA (sense rUrArGrCrCrUrUrGrCrGrUrUrCrCrGrArGrGrAdT*dT; antisense rUrCrCrUrCrGrGrArArCrGrCrArArGrGrCrUrAdT*dT),32,,,
AD-9729: PCSK9 siRNA (sense mUmUmUmCmUrGrGrAmUrGrGmCrAmUmCmUrArGmCdT*dT; antisense rGrCmUrArGrArUrGrCmCrArUrCmCrArGrArArAdT*dT),56,,,
AD-9547: PCSK9 siRNA (sense rCrUrCrGrCrArGrUrCrArGrArGrCrGrCrArCrUdT*dT; antisense rArGrUrGrCrGrCrUrCrUrGrArCrUrGrCrGrArGdT*dT),31,29,,0.2
AD-9716: PCSK9 siRNA (sense rAmCmCrArAmCmUmUmUrGrGmCmCrGmCmUrGmUrGdT*dT; antisense mCrAmCrArGrCrGrGrCmCrArArArGrUrUrGrGrUdT*dT),114,,,
AD-9626: PCSK9 siRNA (sense rUrGrArArGrArUrArUrUrUrArUrUrCrUrGrGrGdT*dT; antisense rCrCrCrArGrArArUrArArArUrArUrCrUrUrCrAdT*dT),97,68,,
AD-9655: PCSK9 siRNA (sense rGrGrGrAmUrAmCmCmUmCrAmCmCrArArGrAmUmCdT*dT; antisense rGrArUrCrUrUrGrGrUrGrArGrGmUrArUrCrCrCdT*dT),140,,,
AD-9537: PCSK9 siRNA (sense rArCrGrGrUrArCrCrGrGrGrCrGrGrArUrGrArAdT*dT; antisense rUrUrCrArUrCrCrGrCrCrCrGrGrUrArCrCrGrUdT*dT),145,,,
AD-9709: PCSK9 siRNA (sense mCmCmCrAmUrGmUmCrGrAmCmUrAmCrAmUmCrGrAdT*dT; antisense rUrCrGrArUrGmUrArGrUrCrGrAmCrArUrGrGrGdT*dT),104,,,
AD-9532: PCSK9 siRNA (sense rCrCrGrGrGrCrCrCrArCrArArCrGrCrUrUrUrUdT*dT; antisense rArArArArGrCrGrUrUrGrUrGrGrGrCrCrCrGrGdT*dT),100,,,
AD-9554: PCSK9 siRNA (sense rUrUrCrUrArGrArCrCrUrGrUrUrUrUrGrCrUrUdT*dT; antisense rArArGrCrArArArArCrArGrGrUrCrUrArGrArAdT*dT),23,24,,
AD-9589: PCSK9 siRNA (sense rCrArCrCrGrCrUrGrCrCrGrGrCrArArCrUrUrCdT*dT; antisense rGrArArGrUrUrGrCrCrGrGrCrArGrCrGrGrUrGdT*dT),85,,67,
AD-9641: PCSK9 siRNA (sense rGrGmUrAmCmCrGrGrGmCrGrGrAmUrGrArAmUrAdT*dT; antisense mUrArUrUmCrArUrCrCrGrCrCrCrGrGmUrArCrCdT*dT),92,,,
AD-9625: PCSK9 siRNA (sense rCrUrGrGrUrGrGrArGrGrUrGrUrArUrCrUrCrCdT*dT; antisense rGrGrArGrArUrArCrArCrCrUrCrCrArCrCrArGdT*dT),88,,58,
AD-9595: PCSK9 siRNA (sense rCrUrGrArGrGrArCrCrArGrCrGrGrGrUrArCrUdT*dT; antisense rArGrUrArCrCrCrGrCrUrGrGrUrCrCrUrCrArGdT*dT),31,32,,
AD-9572: PCSK9 siRNA (sense rCrCrArGrGrUrGrCrUrGrCrCrUrGrCrUrArCrCdT*dT; antisense rGrGrUrArGrCrArGrGrCrArGrCrArCrCrUrGrGdT*dT),53,,47,
AD-9687: PCSK9 siRNA (sense rGrAmCrAmCmCrArGmCrAmUrAmCrArGrArGmUrGdT*dT; antisense mCrArCrUrCrUrGmUrArUrGrCrUrGrGrUrGrUrCdT*dT),84,,,
